Tests used:
[1] = Muscle levels 24 hours after intramuscular injection; details: 24 hours after intramuscular injection (100 μg) with protein antigens, Balb/C mice
[2] = Adsorption to aluminum hydroxide, LC-MS/MS of supernatant; details: 10 mM histidine buffer pH 6.8; final compound concentration 0.1 mg/mL; 37° C. for 5 hours; 100% minus % unbound
Method: The resulting solution was diluted 10-fold with blank histidine buffer to a final compound concentration of 0.1 mg/mL. Diluted solutions were incubated at 37° C. for 5 hours. The samples were centrifuged at 14,000 rpm for 10 minutes to pellet the insoluble. The supernatant (along with an internal standard) was then evaluated by LC-MS/MS using a ballistic gradient (from 5% CH3CN-0.5% formic acid to 95% CH3CN-1.0% formic acid in 3.5 minutes) on a Waters Atlantis dC18 (50 mm×2.1 mm) column at room temperature against a calibration curve prepared at known compound concentrations ranging from 0.005 to 50 μM. The concentration in the supernatant was calculated as % unbound to alum compared to control; the % bound to alum was calculated as 100% minus % unbound.

[3] = test system: five different strains; experiment: Strain coverage of sera after immunization with modified 5CVMB; type: in vivo, MenB; details: compound pre-adsorbed to aluminium hydroxide
Description: 2010 claiming priority from U.S. Ser. No. 61/237,576 (SEQ ID NO: 126 therein).

SMILES: Cc1cc(OCCOCCOCCP(=O)(O)O)ccc1CCc1cnc2c(N)nc3cc(CCC(=O)O)ccc3c2c1 [Compound 20, 3-(5-amino-2-(2-methyl-4-(2-(2-(2-phosphonoethoxy)ethoxy)ethoxy)phenethyl)benzo[f][1,7]naphthyridin-8-yl)propanoic acid]
- muscle level of compound ([1]; with aluminium hydroxide adjuvant): readily detected
- muscle level of compound ([1]; without aluminium hydroxide adjuvant): undetectable
- % bound to alum [2]: 97.0%
- strain coverage compared to aluminium hydroxide alone [3]: improves the strain coverage
